# Measurements taken from article PMC5733478, “A Non-imaging High Throughput Approach to Chemical Library Screening at the Unmodified Adenosine-A3 Receptor in Living Cells” (Frontiers in Pharmacology, 2017).
# Counter-ions that a name gives are not always drawn. Like-named read-outs stand apart in the source and are kept apart here.
# Target: T1, human A3AR (Homo sapiens, UniProt P0DMS8)
# T1 construct: expressed in transfected cells
# T1 sequence (P0DMS8 1-318): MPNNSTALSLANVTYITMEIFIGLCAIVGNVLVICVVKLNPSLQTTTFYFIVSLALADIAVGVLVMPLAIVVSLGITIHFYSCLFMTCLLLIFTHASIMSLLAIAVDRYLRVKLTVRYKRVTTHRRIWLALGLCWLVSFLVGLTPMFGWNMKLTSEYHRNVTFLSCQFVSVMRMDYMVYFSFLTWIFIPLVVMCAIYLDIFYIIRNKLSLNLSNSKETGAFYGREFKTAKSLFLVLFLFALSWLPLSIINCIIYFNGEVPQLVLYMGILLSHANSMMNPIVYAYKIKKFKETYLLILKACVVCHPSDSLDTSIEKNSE
# Test: LOPAC library primary screen: single concentration (10 μM) inhibition of 25 nM CA200645 binding, PHERAstar FS
# [1] = % of control wells (1% DMSO and 25 nM CA200645), compounds at 10 µM, whole live cells expressing the A3AR, mean ± SD, three experiments in duplicate
# [2] = compounds tested at 10 µM, % of control wells (1% DMSO and 25 nM CA200645), whole live cells expressing the A3AR, mean ± SD, three experiments in duplicate
Compound,% 25 nM CA200645 binding [%],other results
COc1cccc(OC)c1OCCNCC1COc2ccccc2O1.Cl (stereo not shown) [WB-4101 hydrochloride],76.0 ± 5.8,
Brc1c(Br)c(Br)c2n[nH]nc2c1Br [TBB],67.4 ± 13.4,
"O=c1nc2[nH]c3ccccc3nc-2c(=O)[nH]1 [alloxazine, reference compound]",89.0 ± 4.9,"hit in LOPAC primary screen (inhibited the binding of CA200645 by >40%) (10 μM compound, 25 nM CA200645, A3AR CHO cells): not identified as hits"
CCCCCCCCCCCCCC(=O)O[C@@H]1[C@@H](C)[C@@]2(O)[C@@H](C=C(CO)C[C@]3(O)C(=O)C(C)=C[C@@H]23)[C@@H]2C(C)(C)[C@]12OC(C)=O [Phorbol 12-myristate 13-acetate],80.3 ± 5.6,
"CN(C)C(N)=NCCC[C@H](N)C(=O)O.Cl [N^G,N^G-Dimethylarginine hydrochloride]",101.2 ± 10.7,
CC(C)C(=O)Nc1ccc([N+](=O)[O-])c(C(F)(F)F)c1 [Flutamide],84.4 ± 23.0,
O=C(O)C1=CCNCC1 [Isoguvacine hydrochloride],,% 25 nM CA200645 binding [1]: 87.4 ± 16.5%
Cc1ccc(-c2cc(C(F)(F)F)nn2-c2ccc(S(N)(=O)=O)cc2)cc1 [Celecoxib],72.6 ± 20.4,
CC(CCc1ccccc1)NCC(O)c1ccc(O)c(C(N)=O)c1 (stereo not shown) [Labetalol hydrochloride],97.5 ± 13.9,
O=C(O)C1CCNCC1 [Isonipecotic acid],88.5 ± 19.5,
CNCC(O)c1ccc(O)cc1 (racemic) [(±)-Synephrine],90.7 ± 28.9,
COC(=O)C1=C(C)NC(C)=C(C(=O)OC(C)(C)CN(C)CCC(c2ccccc2)c2ccccc2)C1c1cccc([N+](=O)[O-])c1.COC(=O)C1=C(C)NC(C)=C(C(=O)OC(C)(C)CN(C)CCC(c2ccccc2)c2ccccc2)C1c1cccc([N+](=O)[O-])c1.Cl.Cl.O (stereo not shown) [Lercanidipine hydrochloride hemihydrate],82.9 ± 16.7,
OCCN1CCN(CCCN2c3ccccc3C=Cc3ccccc32)CC1 [Opipramol dihydrochloride],100.5 ± 7.4,
Nc1c(S(=O)(=O)O)cc(Nc2ccc(Nc3nc(Cl)nc(Nc4cccc(S(=O)(=O)O)c4)n3)c(S(=O)(=O)O)c2)c2c1C(=O)c1ccccc1C2=O [Reactive Blue 2],24.5 ± 2.7,
O=C1NCc2c1c1c3ccccc3[nH]c1c1[nH]c3ccccc3c21 [Staurosporine aglycone],81.9 ± 6.1,
O=C(c1ccc(F)cc1)C1CCN(CCn2c(=O)[nH]c3ccccc3c2=O)CC1 [Ketanserin tartrate],100.1 ± 15.2,
CCC(=O)c1ccc2c(c1)N(CCCN(C)C)c1ccccc1S2 [Propionylpromazine hydrochloride],,% 25 nM CA200645 binding [2]: 101.0 ± 0.8%
Br.CCCN1CCC2c3cc(O)ccc3CCC21 (racemic) [cis(+/-)-8-OH-PBZI hydrobromide],98.1 ± 5.1,
CCC1(C)CC(=O)NC1=O (stereo not shown) [Ethosuximide],88.4 ± 5.5,
CCOC(=O)C1=C(C)NC(C)=C(C(=O)OC)C1c1cccc([N+](=O)[O-])c1 (stereo not shown) [Nitrendipine],96.1 ± 17.4,
COc1ccc2c(c1OC)C(=O)O[C@@H]2[C@H]1c2c(cc3c(c2OC)OCO3)CCN1C.Cl [Noscapine hydrchloride],114.6 ± 20.4,
CN1[C@@H](CC(=O)c2ccccc2)CCC[C@H]1C[C@H](O)c1ccccc1.Cl [alpha-Lobeline hydrochloride],90.3 ± 6.6,
C[N+](C)(C)CC(=O)O [Betaine hydrochloride],78.7 ± 15.6,

Compound,% 25 nM CA200645 binding [%],other results
NC(=O)C(=O)O [Sodium Oxamate],96.5 ± 14.4,
"MDL 26,630 trihydrochloride",124.5 ± 16.5,
"Oc1cccc2c(O)nccc12 [1,5-Isoquinolinediol]",97.2 ± 4.1,
C[C@H]1O[C@@H](n2cc(F)c(=O)[nH]c2=O)[C@H](O)[C@@H]1O [5-fluoro-5'-deoxyuridine],95.4 ± 4.3,
CCOC(=O)C1=C[C@]2(CC)CCCN3CCc4c(n1c1ccccc41)[C@@H]32 [Vinpocetine],97.3 ± 11.5,
CN(N=O)c1cc(O)ccc1O [Dephostatin],75.4 ± 19.6,
COc1ccc([C@@H]2Sc3ccccc3N(CCN(C)C)C(=O)[C@@H]2OC(C)=O)cc1 [Diltiazem hydrochloride],97.4 ± 8.9,
CC(C)[C@H]1c2ccc(F)cc2CC[C@@]1(CCN(C)CCCc1nc2ccccc2[nH]1)OC(=O)C1CC1 [NNC 55-0396],109.8 ± 31.5,
O=C(O)CCc1nc(-c2ccccc2)c(-c2ccccc2)o1 [Oxaprozin],97.6 ± 6.3,
Cl.Clc1cc(I)cc(Cl)c1NC1=NCCN1 [p-Iodoclonidine hydrochloride],77.2 ± 42.2,
CC(C)Oc1cccnc1N(C)C1CCN(Cc2ccccc2)CC1.O=C(O)/C=C\C(=O)O [U-101958 maleate],102.1 ± 9.0,
O=C1N(c2ccccc2)c2ccccc2C1(Cc1ccncc1)Cc1ccncc1 [Linopirdine],,% 25 nM CA200645 binding [2]: 105.3 ± 3.6%
Oc1ncnc2[nH]ncc12 [Allopurinol],99.8 ± 7.2,
O=C(/C=C/c1ccc(O)cc1)c1ccc(O)cc1O [Isoliquiritigenin],88.0 ± 9.1,
COc1ccc(C2(O)OC(=O)C(c3ccc4c(c3)OCO4)=C2Cc2cc(OC)c(OC)c(OC)c2)cc1 (stereo not shown) [PD-156707],71.9 ± 8.4,
CCCN1C[C@H](CSC)C[C@@H]2c3cccc4[nH]cc(c34)C[C@H]21 [Pergolide methanesulfonate],82.8 ± 15.4,
COc1ccc(-c2cc(=O)c3c(O)c(OC)c(OC)cc3o2)cc1O [Eupatorin],47.2 ± 12.7,
Cl.Fc1ccc(C(OCCCc2c[nH]cn2)c2ccc(F)cc2)cc1,99.1 ± 1.1,
CN(C)CCC(c1ccccc1)c1ccccn1 (stereo not shown) [Pheniramine maleate],91.5 ± 14.9,
Cc1cc(O)c2c(c1)C(=O)c1cc(O)cc(O)c1C2=O [Emodin],52.8± 4.4,
"Brc1c(NC2=NCCN2)ccc2nccnc12 [UK 14,304]",102.1 ± 10.4,
Cn1c(=O)c2[nH]cnc2n(C)c1=O.Cn1c(=O)c2[nH]cnc2n(C)c1=O.NCCN [Aminophylline ethylenediamine],89.2 ± 8.4,
NC(=O)CN1CC(O)CC1=O (stereo not shown) [Oxiracetam],97.9 ± 12.4,

Compound,% 25 nM CA200645 binding [%],other results
"CN(C)c1nc(N)c(C(=O)NC(=N)N)nc1Cl [5-(N,N-Dimethyl)amiloride hydrochloride]",95.5 ± 2.7,
CC1CN(S(=O)(=O)c2cccc3cnccc23)CCN1.Cl.Cl (stereo not shown),95.4 ± 14.7,
Clc1ccc(C(c2ccccc2Cl)C(Cl)Cl)cc1 (stereo not shown),87.8 ± 23.1,
Cc1ccccc1N1C(=O)c2cc(S(N)(=O)=O)c(Cl)cc2NC1C (stereo not shown) [Metolazone],90.5 ± 39.1,
CC(C)[N+](C)(CCOC(=O)C1c2ccccc2Oc2ccccc21)C(C)C [Propantheline bromide],95.5 ± 4.8,
CNCCC(Oc1ccc(C(F)(F)F)cc1)c1ccccc1 (stereo not shown) [Fluoxetine hydrochloride],102.9 ± 7.1,
CC[C@H]1CN2CCc3cc(OC)c(OC)cc3[C@@H]2C[C@@H]1C[C@H]1NCCc2cc(OC)c(OC)cc21 [Emetine dihydrochloride hydrate],102.7 ± 9.1,
C[C@@H]1O[C@@H](O[C@H]2C[C@@H](O)[C@]3(CO)[C@H]4[C@H](O)C[C@]5(C)[C@@H](C6=CC(=O)OC6)CC[C@]5(O)[C@@H]4CC[C@]3(O)C2)[C@H](O)[C@H](O)[C@H]1O [Ouabain],102.0 ± 3.5,
CC(C)NCC(O)COc1ccc(CCOCC2CC2)cc1 (stereo not shown) [Betaxolol hydrochloride],98.4 ± 4.9,
Cc1ccc(=O)n(-c2ccccc2)c1 [Pirfenidone],96.4 ± 15.8,
COc1cccc(C(=O)NCCN2CCN(c3ccc(Cl)cc3)CC2)c1,94.3 ± 6.0,
OC(CN1CCC(Cc2ccc(F)cc2)CC1)c1ccc(Cl)cc1 (stereo not shown) [Eliprodil],,% 25 nM CA200645 binding [1]: 98.8 ± 8.5%
CC(C)NCC(O)COc1cccc2[nH]ccc12 (stereo not drawn) [S(-)-Pindolol],98.0 ± 8.4,
Cl.NC[C@@H]1O[C@H](C23CC4CC(CC(C4)C2)C3)Cc2c1ccc(O)c2O [A-77636 hydrochloride],87.3 ± 8.5,
NCCCC(=O)O [GABA],95.6 ± 8.2,
CC(=O)O[C@H]1Cc2ccccc2N(C(N)=O)c2ccccc21 [BIA 2-093],110.6 ± 5.0,
C[N+](C)(C)CCOC(=O)CBr.[Br-] [Bromoacetylcholine bromide],95.1 ± 8.8,
NC(=O)N1c2ccccc2C=Cc2ccccc21 [Carbamazepine],89.8 ± 14.0,
Cl.N=C(N)c1ccc(CS(=O)(=O)F)cc1,98.9 ± 8.1,
NCC1(CC(=O)O)CCCCC1 [Gabapentin],80.7 ± 22.8,
N[C@@H](CS(=O)O)C(=O)O [L-Cysteinesulfinic Acid],83.6 ± 21.3,
CN(C)CCCN1c2ccccc2Sc2ccc(Cl)cc21 [Chlorpromazine hydrochloride],92.2 ± 10.3,
CNCCNS(=O)(=O)c1cccc2cnccc12.Cl.Cl [H-8 dihydrochloride],106.4 ± 6.7,
